Measured values taken from US7709636B2, “Pyrazole sulfonylurea compound and herbicide” (Nissan Chemical Industries, Ltd., priority 2004, dated 2010).

Experiments:
[1] = system: rice transplanted at a depth of 0 cm; test: Herbicidal effect test in submerged condition by treatment before weed-generation (2); assay type: in vivo, Oryza sativa; conditions: 0.3 g/a; submerged paddy soil pot, seedlings fixed to paddy surface with roots exposed; 3 weeks after treatment
Procedure: (§1) Herbicidal Effect Test in Submerged Condition by Treatment Before Weed-Generation (2)
(§2) Paddy surface soil was placed in a plastic pot of 1/10000 are, water was poured therein and mixed. After seeds of Scirpus juncoides were sown, paddy surface soil was added by 2 cm, and submerged with water, and then seeds of Echinochloa crus-galli, Scirpus juncoides, Monochoria vaginalis, Rotala indica and Lindernia pyxidaria were sown together. In addition, rice seedlings at 2.5th leaf stage were transplanted, and fixed to the paddy surface in a state where the roots were exposed on the other side. On the day when the seeds were sown, the wettable powder of the present invention prepared according to Formulation Example 1 was diluted with water so as to give a predetermined formulation amount, and the surface of the water was treated with the diluted wettable powder. The plants were grown by putting the pot in a green house at 25 to 30° C. The herbicidal effect for each plant was investigated 3 weeks after treatment with the herbicide according to the criteria indicated in Test Example 1.

Lindernia pyxidaria = test: as above; assay type: in vivo; conditions: 0.3 g/a; submerged paddy soil pot, water surface treated on day of sowing; 3 weeks after treatment
Procedure: as §1, §2

Scirpus juncoides = test: as above; assay type: in vivo; conditions: 0.3 g/a; submerged paddy soil pot, water surface treated on day of sowing; 3 weeks after treatment
Procedure: as §1, §2

Rotala indica = test: as above; assay type: in vivo; conditions: 0.3 g/a; submerged paddy soil pot, water surface treated on day of sowing; 3 weeks after treatment
Procedure: as §1, §2

Echinochloa crus-galli [2] = test: as above; assay type: in vivo; conditions: 0.3 g/a; submerged paddy soil pot, water surface treated on day of sowing; 3 weeks after treatment
Procedure: as §1, §2

Monochoria vaginalis = test: as above; assay type: in vivo; conditions: 0.3 g/a; submerged paddy soil pot, water surface treated on day of sowing; 3 weeks after treatment
Procedure: as §1, §2

[3] = system: transplanted rice (Oryza sativa); test: as above; assay type: in vivo; conditions: 0.3 g/a; submerged paddy soil pot, rice seedlings at 2.5th leaf stage transplanted; 3 weeks after treatment
Procedure: as §1, §2

direct sown rice [4] = test: Herbicidal effect test by soil treatment; assay type: in vivo, Oryza sativa; conditions: 1.6 g/a, 3 weeks after treatment
Method in brief: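 Pre-emergence soil application: wettable powder formulation, water-diluted to set dose, sprayed evenly over soil surface after sowing; seeds under ~1.5 cm sterilized diluvial soil. Effect rated at 3 wk by criteria scale.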

direct sown rice [5] = test: Herbicidal effect test by foliage treatment; assay type: in vivo, Oryza sativa; conditions: 1.6 g/a; foliage treatment after growth of 14 days; 3 weeks after treatment
Method in brief: (§3)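 Post-emergence foliar spray: plants raised 14 d in greenhouse (25–30° C) from seed in sterilized diluvial soil, sprayed with diluted wettable powder formulation, injury rated visually at 3 wk.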

Polygonum blumei = test: Herbicidal effect test by foliage treatment; assay type: in vivo; conditions: 1.6 g/a; foliage treatment after growth of 14 days; 3 weeks after treatment
Method in brief: as §3

soybean (Glycine max) = test: Herbicidal effect test by foliage treatment; assay type: in vivo; conditions: 1.6 g/a; foliage treatment after growth of 14 days; 3 weeks after treatment
Method in brief: as §3

Beta vulgaris (beet) = test: Herbicidal effect test by foliage treatment; assay type: in vivo; conditions: 1.6 g/a; foliage treatment after growth of 14 days; 3 weeks after treatment
Method in brief: as §3

Amaranthus retroflexus = test: Herbicidal effect test by foliage treatment; assay type: in vivo; conditions: 1.6 g/a; foliage treatment after growth of 14 days; 3 weeks after treatment
Method in brief: as §3

Stellaria media = test: Herbicidal effect test by foliage treatment; assay type: in vivo; conditions: 1.6 g/a; foliage treatment after growth of 14 days; 3 weeks after treatment
Method in brief: as §3

Setaria viridis = test: Herbicidal effect test by foliage treatment; assay type: in vivo; conditions: 1.6 g/a; foliage treatment after growth of 14 days; 3 weeks after treatment
Method in brief: as §3

Ambrosia elatior = test: Herbicidal effect test by foliage treatment; assay type: in vivo; conditions: 1.6 g/a; foliage treatment after growth of 14 days; 3 weeks after treatment
Method in brief: as §3

Chenopodium album = test: Herbicidal effect test by foliage treatment; assay type: in vivo; conditions: 1.6 g/a; foliage treatment after growth of 14 days; 3 weeks after treatment
Method in brief: as §3

Echinochloa crus-galli [6] = test: Herbicidal effect test by foliage treatment; assay type: in vivo; conditions: 1.6 g/a; foliage treatment after growth of 14 days; 3 weeks after treatment
Method in brief: as §3

Abutilon avicennae = test: Herbicidal effect test by foliage treatment; assay type: in vivo; conditions: 1.6 g/a; foliage treatment after growth of 14 days; 3 weeks after treatment
Method in brief: as §3

Digitaria adscendes = test: Herbicidal effect test by foliage treatment; assay type: in vivo; conditions: 1.6 g/a; foliage treatment after growth of 14 days; 3 weeks after treatment
Method in brief: as §3

corn (Zea mays) = test: Herbicidal effect test by foliage treatment; assay type: in vivo; conditions: 1.6 g/a; foliage treatment after growth of 14 days; 3 weeks after treatment
Method in brief: as §3

Black-grass = test: Herbicidal effect test by foliage treatment; assay type: in vivo; conditions: 1.6 g/a; foliage treatment after growth of 14 days; 3 weeks after treatment
Method in brief: as §3

[7] = system: Triticum aestivum (wheat); test: Herbicidal effect test by foliage treatment; assay type: in vivo; conditions: 1.6 g/a; foliage treatment after growth of 14 days; 3 weeks after treatment
Method in brief: as §3

For `COc1cc(OC)nc(NC(=O)NS(=O)(=O)c2c(C3=NOCC(C)O3)c(Cl)nn2C)n1` (centres unmarked) [Compound 1, N-((4,6-dimethoxypyrimidin-2-yl)aminocarbonyl)-3-chloro-1-methyl-4-(5-methyl-5H,6H-1,4,2-dioxadin-3-yl)pyrazole-5-sulfonamide], the “herbicidal effect, g: rice transplanted at a depth of 0 cm” value [1] was 0 (Herbicidal rate 5% or less (little effect)), the “herbicidal effect, O: Lindernia pyxidaria” value (Lindernia pyxidaria) was 5 (Herbicidal rate 90% or more (almost complete death)) and the “herbicidal effect, B: Scirpus juncoides” value (Scirpus juncoides) was 5 (Herbicidal rate 90% or more (almost complete death)). For the same molecule, the “herbicidal effect, N: Rotala indica” value (Rotala indica) was 5 (Herbicidal rate 90% or more (almost complete death)), the “herbicidal effect, A: Echinochloa crus-galli” value (Echinochloa crus-galli [2]) was 5 (Herbicidal rate 90% or more (almost complete death)) and the “herbicidal effect, C: Monochoria vaginalis” value (Monochoria vaginalis) was 5 (Herbicidal rate 90% or more (almost complete death)). For the same molecule, the “herbicidal effect, a: transplanted rice (Oryza sativa)” value [3] was 0 (Herbicidal rate 5% or less (little effect)), the “herbicidal effect, d: direct sown rice” value (direct sown rice [4]) was 2 (Herbicidal rate 20% or more and less than 40%) and the “herbicidal effect, d: direct sown rice” value (direct sown rice [5]) was 0 (Herbicidal rate 5% or less (little effect)). The “herbicidal effect, L: Polygonum blumei” value (Polygonum blumei) was 5 (Herbicidal rate 90% or more (almost complete death)), the “herbicidal effect, c: soybean (Glycine max)” value (soybean (Glycine max)) was 5 (Herbicidal rate 90% or more (almost complete death)) and the “herbicidal effect, f: Beta vulgaris (beet)” value (Beta vulgaris (beet)) was 5 (Herbicidal rate 90% or more (almost complete death)). The “herbicidal effect, J: Amaranthus retroflexus” value (Amaranthus retroflexus) was 5 (Herbicidal rate 90% or more (almost complete death)), the “herbicidal effect, M: Stellaria media” value (Stellaria media) was 5 (Herbicidal rate 90% or more (almost complete death)) and the “herbicidal effect, E: Setaria viridis” value (Setaria viridis) was 3 (Herbicidal rate 40% or more and less than 70%). The “herbicidal effect, I: Ambrosia elatior” value (Ambrosia elatior) was 5 (Herbicidal rate 90% or more (almost complete death)), the “herbicidal effect, K: Chenopodium album” value (Chenopodium album) was 4 (Herbicidal rate 70% or more and less than 90%) and the “herbicidal effect, A: Echinochloa crus-galli” value (Echinochloa crus-galli [6]) was 5 (Herbicidal rate 90% or more (almost complete death)). The “herbicidal effect, H: Abutilon avicennae” value (Abutilon avicennae) was 5 (Herbicidal rate 90% or more (almost complete death)), the “herbicidal effect, D: Digitaria adscendes” value (Digitaria adscendes) was 5 (Herbicidal rate 90% or more (almost complete death)) and the “herbicidal effect, b: corn (Zea mays)” value (corn (Zea mays)) was 5 (Herbicidal rate 90% or more (almost complete death)). For the same molecule, the “herbicidal effect, G: Black-grass” value (Black-grass) was 4 (Herbicidal rate 70% or more and less than 90%) and the “herbicidal effect, e: Triticum aestivum (wheat)” value [7] was 2 (Herbicidal rate 20% or more and less than 40%).
